A word on the IC50: it is the point on the concentration scale where inhibition reaches its midpoint. In general, AC50 refers to the concentration giving half of the maximal activity seen.

Active and inactive are the calls of the source.

IC50 and AC50 data for three molecules are collected here from ChEMBL document CHEMBL1201862, “PubChem BioAssay data set” (2004).

In assay [1] the target is T1, Dual specificity protein phosphatase 3 (Homo sapiens, UniProt P51452). The assay can be described thus: VHR1 phosphatase inhibitors, biochemical (AID 1878).
Assay [2] concerns the target 26S proteasome non-ATPase regulatory subunit 14 (Homo sapiens, UniProt O00487). In words: inhibition of proteasome subunit RPN11 – biochemical, fluorescence polarization, uHTS hits, confirmation (AID 602368). It counts as functional.
For assay [3], the target named is T1, Dual specificity protein phosphatase 3. In words: VHR1 phosphatase inhibitors, primary screen, biochemical, absorbance, uHTS (AID 1654).
Assay [4] has the same target. The assay can be described thus: SAR VHR1 Fluorescent Assay for In Vitro dose response studies Set 2. [Related pubchem assays (depositor defined):AID1654, AID1661, AID1878]. The format is functional.
Assay [5] deals with T2, Dual specificity protein phosphatase 6 (Rattus norvegicus, UniProt Q64346).
T2 sequence (Q64346 whole entry): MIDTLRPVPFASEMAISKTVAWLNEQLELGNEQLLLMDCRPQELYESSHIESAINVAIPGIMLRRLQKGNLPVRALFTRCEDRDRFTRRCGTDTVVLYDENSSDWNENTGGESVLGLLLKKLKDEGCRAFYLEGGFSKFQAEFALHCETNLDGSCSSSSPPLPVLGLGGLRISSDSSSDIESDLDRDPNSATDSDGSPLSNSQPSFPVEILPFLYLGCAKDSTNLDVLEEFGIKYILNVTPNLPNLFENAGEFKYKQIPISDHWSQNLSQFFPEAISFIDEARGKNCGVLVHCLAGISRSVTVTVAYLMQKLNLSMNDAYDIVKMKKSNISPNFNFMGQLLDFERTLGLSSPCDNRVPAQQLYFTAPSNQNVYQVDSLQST
The assay can be described thus: MKP-3 phosphatase inhibitors, primary screen, biochemical, rat enzyme, in vitro (AID 425).

The target in assay [6] is T1, Dual specificity protein phosphatase 3. In words: SAR VHR1 absorbance Assay for In Vitro dose response studies. [Related pubchem assays (depositor defined):AID1654, AID1661, AID1878, AID1992, AID2004].
The target in a further assay is T3, Caspase-6 (Homo sapiens, UniProt P55212).
T3 sequence (P55212 whole entry): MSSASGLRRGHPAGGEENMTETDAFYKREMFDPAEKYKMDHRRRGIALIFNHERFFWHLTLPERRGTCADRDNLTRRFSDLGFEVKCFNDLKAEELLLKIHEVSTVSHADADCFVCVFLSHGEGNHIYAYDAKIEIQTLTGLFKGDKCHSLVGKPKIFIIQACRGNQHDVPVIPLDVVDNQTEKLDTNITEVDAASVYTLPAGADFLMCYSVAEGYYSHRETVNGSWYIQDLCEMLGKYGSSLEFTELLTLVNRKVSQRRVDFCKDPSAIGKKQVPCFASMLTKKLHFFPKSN
In words: human caspase-6 inhibitors, dose response, biochemical, VEID-R110 fluorescence, cherry-pick (AID 720632).

The target of assay [7] is T4, Serine/threonine-protein phosphatase (Homo sapiens, UniProt Q9BPW0).
T4 sequence (Q9BPW0 whole entry): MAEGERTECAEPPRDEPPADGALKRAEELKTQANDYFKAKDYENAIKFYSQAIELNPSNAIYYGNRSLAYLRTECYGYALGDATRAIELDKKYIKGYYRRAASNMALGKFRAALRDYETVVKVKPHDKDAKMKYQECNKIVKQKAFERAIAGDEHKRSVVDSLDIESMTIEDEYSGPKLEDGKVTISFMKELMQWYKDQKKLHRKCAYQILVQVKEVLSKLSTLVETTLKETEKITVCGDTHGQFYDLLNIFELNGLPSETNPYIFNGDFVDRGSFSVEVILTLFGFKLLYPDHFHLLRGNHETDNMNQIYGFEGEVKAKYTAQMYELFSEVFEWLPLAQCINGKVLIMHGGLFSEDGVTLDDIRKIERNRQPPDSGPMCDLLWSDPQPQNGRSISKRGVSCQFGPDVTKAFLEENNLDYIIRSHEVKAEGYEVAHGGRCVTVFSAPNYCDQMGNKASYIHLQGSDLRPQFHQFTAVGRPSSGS
In words: PP5 phosphatase inhibitors, dose response, biochemical, fluorescence (AID 2395).

Assay [8] concerns the target T5, Apoptotic protease-activating factor 1 (Homo sapiens, UniProt O14727).
T5 sequence (O14727 whole entry): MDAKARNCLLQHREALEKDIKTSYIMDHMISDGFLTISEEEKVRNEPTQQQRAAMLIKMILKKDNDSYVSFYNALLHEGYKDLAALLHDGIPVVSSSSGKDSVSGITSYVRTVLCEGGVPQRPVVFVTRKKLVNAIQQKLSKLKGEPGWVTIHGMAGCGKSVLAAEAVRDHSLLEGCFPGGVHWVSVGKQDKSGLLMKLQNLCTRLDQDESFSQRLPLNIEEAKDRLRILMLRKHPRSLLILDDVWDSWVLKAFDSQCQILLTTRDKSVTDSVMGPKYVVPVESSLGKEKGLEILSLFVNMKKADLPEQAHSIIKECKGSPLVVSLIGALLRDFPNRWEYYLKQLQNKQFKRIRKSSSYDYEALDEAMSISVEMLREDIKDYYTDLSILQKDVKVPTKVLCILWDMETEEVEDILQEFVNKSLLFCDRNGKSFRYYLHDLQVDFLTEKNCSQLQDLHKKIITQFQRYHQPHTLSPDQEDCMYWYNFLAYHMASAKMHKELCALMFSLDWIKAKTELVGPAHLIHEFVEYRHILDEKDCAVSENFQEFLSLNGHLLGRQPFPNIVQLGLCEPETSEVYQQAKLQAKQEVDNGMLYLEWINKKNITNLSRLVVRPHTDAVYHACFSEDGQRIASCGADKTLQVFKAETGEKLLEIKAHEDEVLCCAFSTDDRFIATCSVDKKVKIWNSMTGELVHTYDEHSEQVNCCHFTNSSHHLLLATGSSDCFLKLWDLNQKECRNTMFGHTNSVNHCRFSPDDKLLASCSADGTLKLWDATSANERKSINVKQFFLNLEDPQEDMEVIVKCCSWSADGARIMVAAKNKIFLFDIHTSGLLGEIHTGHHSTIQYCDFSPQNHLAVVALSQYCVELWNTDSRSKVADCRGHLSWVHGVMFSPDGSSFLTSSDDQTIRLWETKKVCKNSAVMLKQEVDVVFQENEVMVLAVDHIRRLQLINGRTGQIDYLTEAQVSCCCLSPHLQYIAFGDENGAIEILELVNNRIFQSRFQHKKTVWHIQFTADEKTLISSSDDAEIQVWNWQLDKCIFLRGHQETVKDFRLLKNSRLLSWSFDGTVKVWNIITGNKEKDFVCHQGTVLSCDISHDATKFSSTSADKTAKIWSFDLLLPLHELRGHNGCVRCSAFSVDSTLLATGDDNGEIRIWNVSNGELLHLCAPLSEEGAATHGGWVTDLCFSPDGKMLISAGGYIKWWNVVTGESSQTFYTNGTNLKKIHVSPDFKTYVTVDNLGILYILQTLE
The format is functional.

The next assay concerns the target SUMO-activating enzyme (Homo sapiens, UniProt Q9UBT2). In words: inhibitors of in vitro SUMOylation cascade, primary screen, biochemical, HTRF, uHTS (AID 2006). The format is protein-complex assay. On the technique in general: Time-resolved FRET reads energy transfer from a long-lived donor to a nearby acceptor.

T1 sequence (P51452 whole entry): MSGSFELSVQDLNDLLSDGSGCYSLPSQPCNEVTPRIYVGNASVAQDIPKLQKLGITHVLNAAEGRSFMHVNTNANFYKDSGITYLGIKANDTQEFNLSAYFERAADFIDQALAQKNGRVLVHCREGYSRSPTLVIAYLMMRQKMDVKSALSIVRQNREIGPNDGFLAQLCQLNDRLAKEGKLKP
26S proteasome non-ATPase regulatory subunit 14, sequence (O00487 whole entry): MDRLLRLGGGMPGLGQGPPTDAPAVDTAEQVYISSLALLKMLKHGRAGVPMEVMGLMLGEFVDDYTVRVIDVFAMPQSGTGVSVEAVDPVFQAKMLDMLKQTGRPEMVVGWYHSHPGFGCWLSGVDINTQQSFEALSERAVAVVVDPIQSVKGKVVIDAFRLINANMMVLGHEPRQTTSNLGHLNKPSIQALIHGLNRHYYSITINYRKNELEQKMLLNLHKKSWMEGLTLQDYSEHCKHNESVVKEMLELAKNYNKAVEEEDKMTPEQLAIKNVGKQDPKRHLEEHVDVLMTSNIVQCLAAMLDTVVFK
SUMO-activating enzyme, sequence (Q9UBE0 whole entry): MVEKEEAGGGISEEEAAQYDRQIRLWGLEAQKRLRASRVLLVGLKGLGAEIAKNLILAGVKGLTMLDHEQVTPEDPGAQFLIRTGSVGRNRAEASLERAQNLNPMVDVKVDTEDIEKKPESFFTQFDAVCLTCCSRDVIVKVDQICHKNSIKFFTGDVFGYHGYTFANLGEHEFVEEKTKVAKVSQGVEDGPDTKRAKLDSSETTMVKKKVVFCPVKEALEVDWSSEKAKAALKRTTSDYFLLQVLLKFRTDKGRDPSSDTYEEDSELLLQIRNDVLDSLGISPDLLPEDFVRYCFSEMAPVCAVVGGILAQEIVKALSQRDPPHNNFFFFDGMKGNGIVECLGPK
SUMO-activating enzyme, sequence (Q9UBT2 whole entry): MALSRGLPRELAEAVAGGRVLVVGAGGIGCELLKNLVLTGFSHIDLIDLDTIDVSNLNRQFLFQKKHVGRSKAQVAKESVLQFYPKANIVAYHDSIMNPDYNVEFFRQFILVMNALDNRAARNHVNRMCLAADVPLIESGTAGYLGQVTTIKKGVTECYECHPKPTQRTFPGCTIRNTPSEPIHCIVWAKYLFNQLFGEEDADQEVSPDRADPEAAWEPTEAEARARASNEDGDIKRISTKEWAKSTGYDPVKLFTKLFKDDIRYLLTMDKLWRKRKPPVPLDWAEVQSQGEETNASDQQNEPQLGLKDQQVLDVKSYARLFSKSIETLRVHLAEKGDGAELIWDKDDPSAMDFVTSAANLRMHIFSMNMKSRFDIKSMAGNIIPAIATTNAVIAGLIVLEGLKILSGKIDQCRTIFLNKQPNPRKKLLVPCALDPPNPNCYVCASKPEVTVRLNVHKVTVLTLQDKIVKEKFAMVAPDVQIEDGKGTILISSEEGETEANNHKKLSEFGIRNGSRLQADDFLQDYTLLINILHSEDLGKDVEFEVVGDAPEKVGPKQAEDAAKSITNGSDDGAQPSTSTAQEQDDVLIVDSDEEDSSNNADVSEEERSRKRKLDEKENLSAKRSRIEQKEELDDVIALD

In the case of `CCOC(=O)c1sc2nc3c(SCC(=O)O)cc(C(=O)c4ccccc4O)cn3c(=O)c2c1C`, the IC50 in [1] is 3.69 µM (active); in assay [2], 6.79 µM (active); in assay [3] it was 4.64 µM (active); in assay [4], 0.218 µM (active); in assay [5] it was 103 µM (not active); in assay [6] it was 1.24 µM (active).

With `C=CCn1c(NC(=O)c2ccccc2Cl)c(C#N)c2nc3ccccc3nc21`, at Caspase-6, the AC50 is 10.4 µM (active). Besides, the IC50 in [7] is > 7.45 µM (active); in [8] it was 13.7 µM (active); at SUMO-activating enzyme it was 2.63 µM (active); in [5], > 100 µM (not active).

`CCOC(=O)c1ccc(Nc2cc3ccccc3c(O)n2)cc1`: the AC50 on Caspase-6 is 15.7 µM (active). The IC50 in [8] is 8.78 µM (active).
